# Data published in ChEMBL document CHEMBL4665869, “New thiazolopyrimidine as anticancer agents: Synthesis, biological evaluation, DNA binding, molecular modeling and ADMET study” (Bioorg Med Chem Lett, 2020).
# Assays:
# U-251 = experiment: Growth inhibition of human U-251 cells at 10 uM relative to control; format: functional; conditions: read-out: GI
# Malme-3M = experiment: Growth inhibition of human Malme-3M cells at 10 uM relative to control; format: functional; conditions: read-out: GI
# M14 = experiment: Growth inhibition of human M14 cells at 10 uM relative to control; format: functional; conditions: read-out: GI
# MDA-MB-435 = experiment: Growth inhibition of human MDA-MB-435 cells at 10 uM relative to control; format: functional; conditions: read-out: GI
# SK-MEL-2 = experiment: Growth inhibition of human SK-MEL-2 cells at 10 uM relative to control; format: functional; conditions: read-out: GI
# SK-MEL-28 = experiment: Growth inhibition of human SK-MEL-28 cells at 10 uM relative to control; format: functional; conditions: read-out: GI
# SK-MEL-5 = experiment: Growth inhibition of human SK-MEL-5 cells at 10 uM relative to control; format: functional; conditions: read-out: GI
# UACC-257 = experiment: Growth inhibition of human UACC-257 cells at 10 uM relative to control; format: functional; conditions: read-out: GI
# UACC-62 = experiment: Growth inhibition of human UACC-62 cells at 10 uM relative to control; format: functional; conditions: read-out: GI
# IGROV-1 = experiment: Growth inhibition of human IGROV-1 cells at 10 uM relative to control; format: functional; conditions: read-out: GI
# OVCAR-4 = experiment: Growth inhibition of human OVCAR-4 cells at 10 uM relative to control; format: functional; conditions: read-out: GI
# OVCAR-5 = experiment: Growth inhibition of human OVCAR-5 cells at 10 uM relative to control; format: functional; conditions: read-out: GI
# OVCAR-8 = experiment: Growth inhibition of human OVCAR-8 cells at 10 uM relative to control; format: functional; conditions: read-out: GI
# NCI/ADR-RES = experiment: Growth inhibition of human NCI/ADR-RES cells at 10 uM relative to control; format: functional; conditions: read-out: GI
# SK-OV-3 = experiment: Growth inhibition of human SK-OV-3 cells at 10 uM relative to control; format: functional; conditions: read-out: GI
# 786-0 = experiment: Growth inhibition of human 786-0 cells at 10 uM relative to control; format: functional; conditions: read-out: GI
# A498 = experiment: Growth inhibition of human A498 cells at 10 uM relative to control; format: functional; conditions: read-out: GI
# ACHN = experiment: Growth inhibition of human ACHN cells at 10 uM relative to control; format: functional; conditions: read-out: GI
# CAKI-1 = experiment: Growth inhibition of human CAKI-1 cells at 10 uM relative to control; format: functional; conditions: read-out: GI
# RXF 393 = experiment: Growth inhibition of human RXF 393 cells at 10 uM relative to control; format: functional; conditions: read-out: GI
# SN12C = experiment: Growth inhibition of human SN12C cells at 10 uM relative to control; format: functional; conditions: read-out: GI
# TK-10 = experiment: Growth inhibition of human TK-10 cells at 10 uM relative to control; format: functional; conditions: read-out: GI
# UO-31 = experiment: Growth inhibition of human UO-31 cells at 10 uM relative to control; format: functional; conditions: read-out: GI
# PC-3 = experiment: Growth inhibition of human PC-3 cells at 10 uM relative to control; format: functional; conditions: read-out: GI
# DU-145 = experiment: Growth inhibition of human DU-145 cells at 10 uM relative to control; format: functional; conditions: read-out: GI
# MCF7 = experiment: Growth inhibition of human MCF7 cells at 10 uM relative to control; format: functional; conditions: read-out: GI
# MDA-MB-231 = experiment: Growth inhibition of human MDA-MB-231 cells at 10 uM relative to control; format: functional; conditions: read-out: GI
# Hs-578T = experiment: Growth inhibition of human Hs-578T cells at 10 uM relative to control; format: functional; conditions: read-out: GI
# BT-549 = experiment: Growth inhibition of human BT-549 cells at 10 uM relative to control; format: functional; conditions: read-out: GI
# DNA = experiment: Displacement of methyl green from DNA (unknown origin) assessed as DNA intercalation after 24 hrs by colorimetric assay; format: nucleic-acid assay
smiles,measurement,setting,value
CC1=CN2C(=NC(/C=C/c3ccc(C)cc3)=CC2c2ccc(C)cc2)S1 (stereo not given),inhibition of growth at 10 µM,U-251,< 10%
same,inhibition of growth at 10 µM,Malme-3M,< 10%
same,inhibition of growth at 10 µM,M14,< 10%
same,inhibition of growth at 10 µM,MDA-MB-435,< 10%
same,inhibition of growth at 10 µM,SK-MEL-2,< 10%
same,inhibition of growth at 10 µM,SK-MEL-28,< 10%
same,inhibition of growth at 10 µM,SK-MEL-5,< 10%
same,inhibition of growth at 10 µM,UACC-257,< 10%
same,inhibition of growth at 10 µM,UACC-62,< 10%
same,inhibition of growth at 10 µM,IGROV-1,< 10%
same,inhibition of growth at 10 µM,OVCAR-4,< 10%
same,inhibition of growth at 10 µM,OVCAR-5,< 10%
same,inhibition of growth at 10 µM,OVCAR-8,< 10%
same,inhibition of growth at 10 µM,NCI/ADR-RES,< 10%
same,inhibition of growth at 10 µM,SK-OV-3,< 10%
same,inhibition of growth at 10 µM,786-0,< 10%
same,inhibition of growth at 10 µM,A498,< 10%
same,inhibition of growth at 10 µM,ACHN,< 10%
same,inhibition of growth at 10 µM,CAKI-1,< 10%
same,inhibition of growth at 10 µM,RXF 393,< 10%
same,inhibition of growth at 10 µM,SN12C,< 10%
same,inhibition of growth at 10 µM,TK-10,< 10%
same,inhibition of growth at 10 µM,UO-31,19.1%
same,inhibition of growth at 10 µM,PC-3,< 10%
same,inhibition of growth at 10 µM,DU-145,< 10%
same,inhibition of growth at 10 µM,MCF7,< 10%
same,inhibition of growth at 10 µM,MDA-MB-231,< 10%
same,inhibition of growth at 10 µM,Hs-578T,< 10%
same,inhibition of growth at 10 µM,BT-549,< 10%
same,IC50,DNA,87.57 µg/mL
